Experimental data: US5594033A, “Secoaporphine compound on arrhythmia” (National Science Council, priority 1993, dated 1997)
Like-named read-outs stand apart in the source and are kept apart here.

Tests used:
[1] = tested on: guinea pig left atrium treated with 0.6 μM ouabain; assay: Ouabain induced arrhythmia in guinea pig left atria; conditions: for minimal effective concentration: Cavia porcellus, read-out: Concentration that suppressed the ouabain-induced arrhythmia
Experimental: The left atrium of guinea pigs was first treated with 0.6 μM of ouabain and the contractile force was monitored.

[2] = tested on: delayed rectifier (IK) in guinea pig ventricular cell; assay: Delayed rectifier potassium current (IK), voltage clamp; assay type: cell-based; conditions: Cavia porcellus, guinea pig ventricle cell, read-out: Degree of inhibition of IK
From the text: (§1) Ventricular cells isolated from rats and guinea pigs were placed in a chamber mounted on an inverted microscope, the effects of the test compounds on the action potential and the membrane current were studied by single cell current clamp and voltage clamp technique.

[3] = tested on: transient outward current (Ito) in rat ventricular cell; assay: Transient outward current (Ito), voltage clamp; assay type: cell-based; conditions: for inhibition at 6 µM: Rattus norvegicus, read-out: Ito
From the text: as §1

[4] = tested on: myocyte action potential; assay: Action potential of myocytes, single cell current clamp; assay type: cell-based, rat
From the text: as §1

[5] = tested on: calcium current (ICa) of rat ventricle cell; assay: Calcium inward current (ICa), voltage clamp; assay type: cell-based
From the text: as §1

[6] = tested on: sodium current (INa), sodium channel; assay: Sodium inward current (INa), voltage clamp; assay type: cell-based, rat; conditions: for V1/2 of potential-dependent steady state inactivation of sodium current: control -60.9 mV
From the text: as §1

[7] = tested on: rat right atria, left atria and right ventricular strips; assay: Contractile force and heart rate of isolated rat atria and right ventricle; conditions: n = 6, mean ± S.E.M.
Experimental: Method: After anesthetizing rats with pentobarbital, the heart was taken out, both the atrium and the right ventricle were separately placed in 10 ml of Tyrode solution. The spontaneous contraction of the right atrium was recorded. The contraction of the left atrium and the right ventricle was driven by stimulation at a frquency of twice per second.

CCN(CC)CC(=O)Nc1c(C)cccc1C [lidocaine, reference compound]
minimal effective concentration ([1]; guinea pig atrium, 0.6 μM ouabain): ≥ 30 µM

COc1cc2c(ccc3c(CCN(C)Cc4ccccc4)cc(O)c(OC)c32)cc1O [compound 5, N-benzylsecoboldine]
inhibition at 1 µM [2]: 30% | Inhibitory effect on transient outward current (Ito) versus quinidine ([3]; 3 μM, rat ventricular cell): more profound inhibitory effect

C=CCN(C)CCc1cc(OC)c(OC)c2c1ccc1cc(OC)c(OC)cc12 [compound 4, N-allylsecoglaucine]
Arrhythmia induced by Ouabain: effect on rhythm ([1]; FIG. 12, ouabain 0.6 μM): conversion to normal paced rhythm | Effect on the myocyte action potential ([4]; compared with N-allylsecoboldine): very similar effect on the myocyte action potential as N-allylsecoboldine

COc1cc2c(ccc3c(CCN(C)C#N)cc(O)c(OC)c32)cc1O [compound 26, N-cyanosecoboldine]
inhibition at 6 µM [3]: 80%

C=CCN(C)CCc1cc(O)c(OC)c2c1ccc1cc(OC)c(OC)cc12 [compound 3, N-allylsecopredicentrine]
minimal effective concentration [1]: 30 µM

C=C[C@H]1C[N@@]2CC[C@H]1C[C@@H]2[C@@H](O)c1ccnc2ccc(OC)cc12 [quinidine, reference compound]
Action potential plateau ([4]; 30 MM): decreased action potential plateau | inhibition at 3 µM ([3]; 3 μM, rat ventricular cell, read-out: Reduction of Ito): ~60%

COc1cc2ccc3c(CCN(C)C)cc(OC)c(OC)c3c2cc1OC [compound 8, N-methylsecoglaucine]
inhibition at 6 µM [3]: 70%

COc1cc2ccc3c(CCN(C)C)cc(O)c(OC)c3c2cc1OC [compound 9, N-methylsecopredicentrine]
inhibition at 6 µM [3]: 60%

C=CCN(C)CCc1cc(O)c(OC)c2c1ccc1cc(O)c(OC)cc12 [compound 1, N-allylsecoboldine]
Inhibitory effect on calcium current ([5]; 3 μM): did not show any inhibitory effect | activity at 12 µM ([5]; 12 μM, added in cumulative manner, rat ventricle cell, read-out: Calcium current (ICa), % of control): 71% | inhibition at 12 µM ([5]; Rattus norvegicus, 0.1 h, 12 μM, non-treated cell retained 79% at 6 minutes, read-out: Actual degree of inhibition in calcium current, corrected for spontaneous rundown): 9% | inhibition at 1 µM [2]: 20 to 30% | inhibition at 3 µM ([2]; 3 μM): 50 to 60% | inhibition at 9 µM ([2]; 9 μM): 70 to 80% | V1/2 of potential-dependent steady state inactivation of sodium current ([6]; 3 μM): -70.8 mV | V1/2 of potential-dependent steady state inactivation of sodium current ([6]; 9 μM): -85.9 mV | Sodium current, % of control ([6]; 0.9 to 1.2 μM, guinea pig atrial cell or rat ventricle cell): 25 % of control | Prolongation of the myocyte action potential ([4]; 1 μM): prolongation of the myocyte action potential was seen | Duration of the action potential (prolonged to) ([4]; 3 μM, driven at 0.2 Hz): five | Action potential plateau ([4]; concentration not given, FIG. 4): increased it | activity at 9 µM ([7]; left atria driven at 2 Hz, read-out: Contractile tension (%)): 126 ± 6.3% | activity at 9 µM ([7]; right atria, spontaneous beating rate, read-out: H. R. (%)): 58.5 ± 3.4% | activity at 9 µM ([7]; right atria, spontaneous contraction, read-out: Contractile tension (%)): 164 ± 14% | activity at 9 µM ([7]; right ventricle strips driven at 2 Hz, read-out: Contractile tension (%)): 126 ± 7.3% | Shift of the potential-dependent inactivation curve of Ito ([3]; FIG. 6, 0.6 μM): to the right
